Values of other authors as cited in PMC7397562 (Drug Design, Development and Therapy, 2020).

- Oral absolute bioavailability (mean value): < 3.05%
SMILES: COc1ccc(-c2cc(=O)c3c(OC)c(OC)c(OC)c(OC)c3o2)cc1 [TAGE, tangeretin]
